Measured values reported in publication PMC12396409, “Screening and hit evaluation of a microbial metabolite library against the pathogenic Plasmodium falciparum and Toxoplasma gondii parasites” (International Journal for Parasitology: Drugs and Drug …, 2025).
Where two headings read alike, the source gives them in different places.

Legend:
[1] = system: P. falciparum 3D7 parasites; experiment: P. falciparum growth inhibition assay, 1-cycle (72 h treatment), SYBR DNA staining (library screen at 2 μg/mL and dose-response); type: cell-based, Plasmodium falciparum; conditions: for activity at 2 µg/mL: Plasmodium falciparum
[2] = system: T. gondii RH strain (RH-Tub-eYFP) tachyzoites; experiment: microbe, parasite or virus in culture; type: cell-based, Toxoplasma gondii; conditions: 72 h, 72 h; for percent parasite growth at 2 µg/mL: Toxoplasma gondii
[3] = system: P. falciparum 3D7 parasites; experiment: P. falciparum growth inhibition assay, 2-cycle (120 h treatment), delayed-death screen and dose-response; type: cell-based, Plasmodium falciparum; conditions: for activity at 2 µg/mL: Plasmodium falciparum
[4] = P. falciparum 3D7, 72 h, parasite screen at 2 μg/mL, % growth, replicate 1
[5] = P. falciparum 3D7, 72 h, parasite screen at 2 μg/mL, % growth, replicate 2
[6] = T. gondii, parasite screen at 2 μg/mL, % growth, replicate 1
[7] = T. gondii, parasite screen at 2 μg/mL, % growth, replicate 2
[8] = P. falciparum 3D7, 120 h, parasite screen at 2 μg/mL, % growth, replicate 1
[9] = P. falciparum 3D7, 120 h, parasite screen at 2 μg/mL, % growth, replicate 2
[10] = 3D7, P. falciparum, 72 h, parasite screen 2 μg/mL, % growth, replicate 1, read-out: Pf_72h_%Growth_Rep1
[11] = 3D7, P. falciparum, 72 h, parasite screen 2 μg/mL, % growth, replicate 2, read-out: Pf_72h_%Growth_Rep2
[12] = T. gondii, parasite screen 2 μg/mL, % growth, replicate 1, read-out: Tg_72h_%Growth_Rep1
[13] = T. gondii, parasite screen 2 μg/mL, % growth, replicate 2, read-out: Tg_72h_%Growth_Rep2
[14] = 3D7, P. falciparum, 120 h, parasite screen 2 μg/mL, % growth, replicate 1, read-out: Pf_120h_%Growth_Rep1
[15] = 3D7, P. falciparum, 120 h, parasite screen 2 μg/mL, % growth, replicate 2, read-out: Pf_120h_%Growth_Rep2

**Q.** How did the activity at 2 µg/mL ([1]; 3D7, 72 h, library screen at 2 μg/mL, 72 h, % growth, replicate 1, read-out: Pf_72h_%Growth_Rep1) turn out when CC(=O)O[C@H]1C[C@@]2(C)[C@@H](C[C@@H](O)[C@H]3[C@@]4(C)CC[C@@H](O)[C@@H](C)[C@@H]4CC[C@@]32C)/C1=C(\CCC=C(C)C)C(=O)O [Fusidate sodium] was run?
**A.** Its activity at 2 µg/mL is 87.5%.

**Q.** And the activity at 2 µg/mL ([1]; 3D7, 72 h, library screen at 2 μg/mL, 72 h, % growth, replicate 2, read-out: Pf_72h_%Growth_Rep2)?
**A.** The activity at 2 µg/mL was 96%.

**Q.** And the percent parasite growth at 2 µg/mL ([2]; library screen at 2 μg/mL, % growth, replicate 1, read-out: Tg_72h_%Growth_Rep1)?
**A.** Its percent parasite growth at 2 µg/mL is 111%.

**Q.** And the percent parasite growth at 2 µg/mL ([2]; library screen at 2 μg/mL, % growth, replicate 2, read-out: Tg_72h_%Growth_Rep2)?
**A.** The percent parasite growth at 2 µg/mL was 91.8%.

**Q.** What about the activity at 2 µg/mL ([3]; 3D7, 120 h, library screen at 2 μg/mL, 120 h, % growth, replicate 1, read-out: Pf_120h_%Growth_Rep1) of the same compound?
**A.** Its activity at 2 µg/mL is 91.2%.

**Q.** And the activity at 2 µg/mL ([3]; 3D7, 120 h, library screen at 2 μg/mL, 120 h, % growth, replicate 2, read-out: Pf_120h_%Growth_Rep2)?
**A.** The activity at 2 µg/mL was 139%.

**Q.** Which Pf_72h_%Growth_Rep1 ([1]; P. falciparum, 72 h, screen at 2 μg/mL, replicate 1) does the source give for CC(=O)O[C@H]1CC[C@]2(C)[C@H]3CC[C@]4(C)Oc5oc(C)cc(=O)c5C[C@H]4[C@]3(C)CC[C@H]2C1(C)C [Chevalone C] here?
**A.** Its Pf_72h_%Growth_Rep1 is 92.41%.

**Q.** And the Pf_72h_%Growth_Rep2 ([1]; P. falciparum, 72 h, screen at 2 μg/mL, replicate 2)?
**A.** Its Pf_72h_%Growth_Rep2 is 79.15%.

**Q.** And the Tg_72h_%Growth_Rep1 ([2]; T. gondii, screen at 2 μg/mL, replicate 1)?
**A.** The Tg_72h_%Growth_Rep1 was 84.01%.

**Q.** What about the Tg_72h_%Growth_Rep2 ([2]; T. gondii, screen at 2 μg/mL, replicate 2) of the same compound?
**A.** The Tg_72h_%Growth_Rep2 was 91.63%.

**Q.** What about the Pf_120h_%Growth_Rep1 ([3]; P. falciparum, 120 h, screen at 2 μg/mL, replicate 1) of the same compound?
**A.** Its Pf_120h_%Growth_Rep1 is 145.74%.

**Q.** What about the Pf_120h_%Growth_Rep2 ([3]; P. falciparum, 120 h, screen at 2 μg/mL, replicate 2) of the same compound?
**A.** Its Pf_120h_%Growth_Rep2 is 96.88%.

**Q.** Which results are given for CC(=O)OCC12CC(O)C(C)=CC1OC1C(O)C(OC(C)=O)C2(C)C12CO2 (stereo not drawn) [BIA-N1931]?
**A.** Pf_72h_%Growth_Rep1 [1, 4]: 6.76%; Pf_72h_%Growth_Rep2 [1, 5]: -0.85%; Tg_72h_%Growth_Rep1 [2, 6]: 0.58%; Tg_72h_%Growth_Rep2 [2, 7]: -0.09%; Pf_120h_%Growth_Rep1 [3, 8]: 9.98%; Pf_120h_%Growth_Rep2 [3, 9]: 3.84%

**Q.** Which Pf_72h_%Growth_Rep1 [1, 4] does the source give for CC(C)Cc1cnc(C(O)C(C)C)c(=O)n1O (stereo not drawn) [BIA-N1641] here?
**A.** Its Pf_72h_%Growth_Rep1 is 83.86%.

**Q.** What about the Pf_72h_%Growth_Rep2 [1, 5] of the same compound?
**A.** Its Pf_72h_%Growth_Rep2 is 85.70%.

**Q.** What about the Tg_72h_%Growth_Rep1 [2, 6] of the same compound?
**A.** The Tg_72h_%Growth_Rep1 was 143.25%.

**Q.** What about the Tg_72h_%Growth_Rep2 [2, 7] of the same compound?
**A.** Its Tg_72h_%Growth_Rep2 is 85.15%.

**Q.** And the Pf_120h_%Growth_Rep1 [3, 8]?
**A.** Its Pf_120h_%Growth_Rep1 is 89.64%.

**Q.** What about the Pf_120h_%Growth_Rep2 [3, 9] of the same compound?
**A.** The Pf_120h_%Growth_Rep2 was 132.16%.

**Q.** What does the source list for CN(C)[C@@H]1C(O)=C(C(=O)NCN2CCCC2)C(=O)[C@@]2(O)C(O)=C3C(=O)c4c(O)cccc4[C@@](C)(O)[C@H]3C[C@@H]12 [Rolitetracycline]?
**A.** activity at 2 µg/mL [1, 10]: 87.6%; activity at 2 µg/mL [1, 11]: 70%; percent parasite growth at 2 µg/mL [2, 12]: 105%; percent parasite growth at 2 µg/mL [2, 13]: 84.7%; activity at 2 µg/mL [3, 14]: 82.2%; activity at 2 µg/mL [3, 15]: 135%

**Q.** With CC(=O)O[C@@H]1CC(=O)OC(C)(C)[C@H]2CC[C@@]3(C)[C@@H](CC=C(C)[C@]34C[C@]3(OC(C)=C(C)C3=O)C(=O)O4)[C@@]21C [Setosusin] as the compound, how does the Pf_72h_%Growth_Rep1 ([1]; P. falciparum, 72 h, parasite screen 2 μg/mL, % growth, replicate 1) read?
**A.** Its Pf_72h_%Growth_Rep1 is 71.51%.

**Q.** What about the Pf_72h_%Growth_Rep2 ([1]; P. falciparum, 72 h, parasite screen 2 μg/mL, % growth, replicate 2) of the same compound?
**A.** Its Pf_72h_%Growth_Rep2 is 99.05%.

**Q.** And the Tg_72h_%Growth_Rep1 ([2]; T. gondii, parasite screen 2 μg/mL, % growth, replicate 1)?
**A.** Its Tg_72h_%Growth_Rep1 is 121.79%.

**Q.** What about the Tg_72h_%Growth_Rep2 ([2]; T. gondii, parasite screen 2 μg/mL, % growth, replicate 2) of the same compound?
**A.** Its Tg_72h_%Growth_Rep2 is 85.10%.

**Q.** And the Pf_120h_%Growth_Rep1 ([3]; P. falciparum, 120 h, parasite screen 2 μg/mL, % growth, replicate 1)?
**A.** Its Pf_120h_%Growth_Rep1 is 76.96%.

**Q.** And the Pf_120h_%Growth_Rep2 ([3]; P. falciparum, 120 h, parasite screen 2 μg/mL, % growth, replicate 2)?
**A.** Its Pf_120h_%Growth_Rep2 is 104.05%.

**Q.** With COc1cc(C(=O)O)c2c(c1C)OC(=O)c1c(C)cc(O)c(C=O)c1O2 [Psoromic acid] as the compound, how does the activity at 2 µg/mL [1, 10] read?
**A.** Its activity at 2 µg/mL is 92.3%.

**Q.** What about the activity at 2 µg/mL [1, 11] of the same compound?
**A.** The activity at 2 µg/mL was 123%.

**Q.** And the percent parasite growth at 2 µg/mL [2, 12]?
**A.** Its percent parasite growth at 2 µg/mL is 127%.

**Q.** And the percent parasite growth at 2 µg/mL [2, 13]?
**A.** The percent parasite growth at 2 µg/mL was 82.8%.

**Q.** And the activity at 2 µg/mL [3, 14]?
**A.** Its activity at 2 µg/mL is 90.8%.

**Q.** And the activity at 2 µg/mL [3, 15]?
**A.** Its activity at 2 µg/mL is 141%.

**Q.** Which Pf_72h_%Growth_Rep1 ([1]; P. falciparum 3D7, 72 h, library screen at 2 μg/mL, % growth, replicate 1) does the source give for CCC(C)C1OC2(CCC1C)CC1CC(CC=C(C)C(O)C(C)C=CC=C3COC4C(O)C(C)=CC(C(=O)O1)C34O)O2 (stereo not drawn) [BIA-I1151] here?
**A.** Its Pf_72h_%Growth_Rep1 is 82.86%.

**Q.** What about the Pf_72h_%Growth_Rep2 ([1]; P. falciparum 3D7, 72 h, library screen at 2 μg/mL, % growth, replicate 2) of the same compound?
**A.** Its Pf_72h_%Growth_Rep2 is 77.78%.

**Q.** And the Tg_72h_%Growth_Rep1 ([2]; T. gondii RH, library screen at 2 μg/mL, % growth, replicate 1)?
**A.** The Tg_72h_%Growth_Rep1 was 121.58%.

**Q.** And the Tg_72h_%Growth_Rep2 ([2]; T. gondii RH, library screen at 2 μg/mL, % growth, replicate 2)?
**A.** The Tg_72h_%Growth_Rep2 was 95.56%.

**Q.** What about the Pf_120h_%Growth_Rep1 ([3]; P. falciparum 3D7, 120 h, library screen at 2 μg/mL, % growth, replicate 1) of the same compound?
**A.** Its Pf_120h_%Growth_Rep1 is 87.69%.

**Q.** And the Pf_120h_%Growth_Rep2 ([3]; P. falciparum 3D7, 120 h, library screen at 2 μg/mL, % growth, replicate 2)?
**A.** Its Pf_120h_%Growth_Rep2 is 91.70%.

**Q.** Which Pf_72h_%Growth_Rep1 [1, 4] does the source give for CC1=C\[C@@H](O)CC(=O)Cc2nc(co2)C(=O)N2CCC=C2C(=O)O[C@H](C(C)C)[C@H](C)/C=C/C(=O)NC\C=C\1 [BIA-O1131] here?
**A.** Its Pf_72h_%Growth_Rep1 is 59.89%.

**Q.** And the Pf_72h_%Growth_Rep2 [1, 5]?
**A.** The Pf_72h_%Growth_Rep2 was 79.42%.

**Q.** And the Tg_72h_%Growth_Rep1 [2, 6]?
**A.** The Tg_72h_%Growth_Rep1 was 125.71%.

**Q.** And the Tg_72h_%Growth_Rep2 [2, 7]?
**A.** Its Tg_72h_%Growth_Rep2 is 88.67%.

**Q.** What about the Pf_120h_%Growth_Rep1 [3, 8] of the same compound?
**A.** The Pf_120h_%Growth_Rep1 was 16.87%.

**Q.** What about the Pf_120h_%Growth_Rep2 [3, 9] of the same compound?
**A.** The Pf_120h_%Growth_Rep2 was 26.94%.
